Where two headings read alike, the source gives them in different places. Positions of bridges follow the written chain, without caps; N, C: chain ends. Non-standard residues stand in square brackets, D forms with d. Residues, ends and D or L forms follow the SMILES beside them. ξ: configuration not given here. Phe(3,4,5-F3) = N[C@@H](Cc1cc(F)c(F)c(F)c1)C(=O)O; Bip = N[C@@H](Cc1ccc(-c2ccccc2)cc1)C(=O)O; Phe(4-Cl) = N[C@@H](Cc1ccc(Cl)cc1)C(=O)O; d(cisHyp) = O=C(O)[C@H]1C[C@@H](O)CN1; Bta = N[C@@H](Cc1csc2ccccc12)C(=O)O; Hyp = O=C(O)[C@@H]1C[C@@H](O)CN1; NMeF = CN[C@@H](Cc1ccccc1)C(=O)O; dHyp = O=C(O)[C@H]1C[C@H](O)CN1; dNMeE = CN[C@H](CCC(=O)O)C(=O)O; NMeNle = CCCC[C@H](NC)C(=O)O; dPip = O=C(O)[C@H]1CCCCN1; NMeA = CN[C@@H](C)C(=O)O; Orn = NCCC[C@H](N)C(=O)O; Dab = NCC[C@H](N)C(=O)O; Dap = NC[C@H](N)C(=O)O; ξhCys = NC(CCS)C(=O)O; ξC = NC(CS)C(=O)O; Sar = CNCC(=O)O
Columns and labels:
Human PD-L1/PD-1 = target: T1, Human PD-L1/PD-1 (Homo sapiens, UniProt Q9NZQ7); assay: HTRF PD-1-Ig/PD-L1-His binding assay (human PD-L1); conditions: cluster symbol; read-out: HTRF IC50 cluster
T1 construct: made in house; host or cells: HEK293T
Outline: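 Steps: truncated PD-1-Ig and PD-L1-His fusions are incubated in dPBS containing 0.1% (w/v) BSA and 0.05% (v/v) Tween-20. Detection antibodies are then added (Eu cryptate anti-Ig at 1 nM final, APC anti-His at 20 nM final), and time-resolved FRET is measured.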

[1] = target: T2, LK35.2-hPD-L1 cells / PE-labeled PD-1-Ig (Homo sapiens, UniProt Q9NZQ7); assay: LK35.2-hPD-L1 cell binding high-content screening assay; type: cell-based; conditions: cluster symbol, read-out: CBA IC50 cluster
T2 construct: expressed in transfected cells; host or cells: LK35.2 mouse B cell line
Outline: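 Fluorescent PD-1-Ig binding to PD-L1-expressing LK35.2 cells, imaged after washing. Conditions: 1 nM PE-PD-1-Ig, 37 °C, 1 h, RPMI with 10% fetal calf serum.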

[2] = cell binding assay, cell line not given
[3] = cell line of CBA not given (LK35.2-hPD-L1 or 293T-hPD-L1)

T1 sequence (Q9NZQ7 with tags, fused parts or gaps): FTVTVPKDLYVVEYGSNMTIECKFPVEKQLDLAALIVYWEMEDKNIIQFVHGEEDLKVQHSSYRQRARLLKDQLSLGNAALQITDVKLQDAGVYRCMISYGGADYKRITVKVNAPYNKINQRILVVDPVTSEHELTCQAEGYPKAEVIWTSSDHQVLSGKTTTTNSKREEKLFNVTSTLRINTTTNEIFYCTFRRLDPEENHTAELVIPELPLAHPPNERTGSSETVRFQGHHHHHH
T2 sequence (Q9NZQ7 19-290): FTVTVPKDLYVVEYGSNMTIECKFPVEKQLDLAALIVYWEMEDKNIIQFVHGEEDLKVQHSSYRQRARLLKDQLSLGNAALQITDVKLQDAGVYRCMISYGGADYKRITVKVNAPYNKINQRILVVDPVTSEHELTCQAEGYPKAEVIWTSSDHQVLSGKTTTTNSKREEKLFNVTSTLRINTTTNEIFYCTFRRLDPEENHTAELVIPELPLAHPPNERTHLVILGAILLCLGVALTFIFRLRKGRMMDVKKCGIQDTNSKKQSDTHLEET

| Structure (SMILES) | IC50 (Human PD-L1/PD-1) | IC50 [1, 2] | IC50 [1, 3] |
| --- | --- | --- | --- |
| CCCC[C@H]1C(=O)N(C)[C@@H](CCCC)C(=O)N[C@@H](CCCNC(=N)N)C(=O)NC(C(=O)N[C@@H](CO)C(N)=O)CSCC(=O)N[C@@H](Cc2ccc(O)cc2)C(=O)N(C)[C@@H](C)C(=O)N[C@@H](CC(N)=O)C(=O)N2CCC[C@H]2C(=O)N[C@@H](Cc2cnc[nH]2)C(=O)N[C@@H](CO)C(=O)N2CCC[C@H]2C(=O)N[C@@H](Cc2c[nH]c3ccccc23)C(=O)N[C@@H](CO)C(=O)N[C@@H](Cc2csc3ccccc23)C(=O)N1C (stereo partly shown) [Example 9076] ({CH2CO}-Y[NMeA]NPHSPWS[Bta][NMeNle][NMeNle]R[ξC]S-NH2; thioether N-14) | 0.385 to 6.74 nM | 4.78 to 72.9 nM | – |
| CCCC[C@H]1C(=O)N2C[C@H](O)C[C@@H]2C(=O)N[C@@H](CC(N)=O)C(=O)N[C@@H](C(C)C)C(=O)N(C)[C@@H](Cc2ccccc2)C(=O)N[C@@H](Cc2ccc(O)cc2)C(=O)N(C)[C@H](CCC(=O)O)C(=O)N[C@@H](Cc2c[nH]c3ccccc23)C(=O)N[C@@H](Cc2ccc(O)cc2)C(=O)N[C@@H](CCCCN)C(=O)N[C@H](C(=O)NCC(N)=O)CSCC(=O)N[C@@H](Cc2cc(F)c(F)c(F)c2)C(=O)N(C)[C@@H](Cc2ccccc2)C(=O)N1C [Example 3596] ({CH2CO}-[Phe(3,4,5-F3)][NMeF][NMeNle][d(cisHyp)]NV[NMeF]Y[dNMeE]WYKCG-NH2; thioether N-13) | 6.76 to 30.3 nM | 0.158 to 4.71 nM | – |
| CCCC[C@H]1C(=O)N(C)CC(=O)N[C@@H](CC(=O)O)C(=O)N[C@@H](C(C)C)C(=O)N(C)[C@@H](Cc2ccccc2)C(=O)N[C@@H](Cc2ccc(O)cc2)C(=O)N(C)CC(=O)N[C@@H](Cc2c[nH]c3ccccc23)C(=O)N[C@@H](Cc2ccc(O)cc2)C(=O)N[C@@H](Cc2ccc(Cl)cc2)C(=O)N[C@H](C(=O)NCC(N)=O)CSCC(=O)N[C@@H](Cc2ccccc2)C(=O)N(C)[C@@H](Cc2ccccc2)C(=O)N1C [Example 3098] ({CH2CO}-F[NMeF][NMeNle][Sar]DV[NMeF]Y[Sar]WY[Phe(4-Cl)]CG-NH2; thioether N-13) | > 30.5 nM | – | 4.78 to 72.9 nM |
| CCCC[C@H]1C(=O)N(C)[C@@H](CCCC)C(=O)N[C@@H](CCCNC(=N)N)C(=O)NC(C(=O)N[C@@H](CO)C(N)=O)CSCC(=O)N[C@@H](Cc2ccc(O)cc2)C(=O)N(C)[C@@H](C)C(=O)N[C@@H](CC(N)=O)C(=O)N2CCC[C@H]2C(=O)N[C@@H](CO)C(=O)N[C@@H](CC(C)C)C(=O)N2C[C@H](O)C[C@H]2C(=O)N[C@@H](Cc2c[nH]c3ccccc23)C(=O)N[C@@H](CO)C(=O)N[C@@H](Cc2c[nH]c3ccccc23)C(=O)N1C (stereo partly shown) [Example 9080] ({CH2CO}-Y[NMeA]NPSL[Hyp]WSW[NMeNle][NMeNle]R[ξC]S-NH2; thioether N-14) | 0.385 to 6.74 nM | 0.158 to 4.71 nM | – |
| CCCC[C@H]1C(=O)N(C)CC(=O)N[C@@H](CC(=O)O)C(=O)N[C@@H](C(C)C)C(=O)N(C)[C@@H](Cc2ccccc2)C(=O)N[C@@H](Cc2ccc(O)cc2)C(=O)N(C)CC(=O)N[C@@H](Cc2ccc(-c3ccccc3)cc2)C(=O)N[C@@H](Cc2ccc(O)cc2)C(=O)N[C@@H](CC(C)C)C(=O)N[C@H](C(=O)NCC(N)=O)CSCC(=O)N[C@@H](Cc2ccccc2)C(=O)N(C)[C@@H](Cc2ccccc2)C(=O)N1C [Example 3545] ({CH2CO}-F[NMeF][NMeNle][Sar]DV[NMeF]Y[Sar][Bip]YLCG-NH2; thioether N-13) | > 30.5 nM | > 74.3 nM | – |
| CCCC[C@H]1C(=O)N(C)[C@@H](CCCC)C(=O)N[C@@H](CCCN)C(=O)N[C@H](C(=O)NCC(N)=O)CSCC(=O)N[C@@H](Cc2ccc(O)cc2)C(=O)N(C)[C@@H](C)C(=O)N[C@@H](CC(N)=O)C(=O)N2CCC[C@H]2C(=O)N[C@@H](Cc2c[nH]cn2)C(=O)N[C@@H](CC(C)C)C(=O)N2C[C@H](O)C[C@H]2C(=O)N[C@@H](Cc2c[nH]c3ccccc23)C(=O)N[C@@H](CCN)C(=O)N[C@@H](Cc2c[nH]c3ccccc23)C(=O)N1C [Example 1157] ({CH2CO}-Y[NMeA]NPHL[Hyp]W[Dab]W[NMeNle][NMeNle][Orn]CG-NH2; thioether N-14) | 6.76 to 30.3 nM | – | 0.158 to 4.71 nM |
| CCCC[C@H]1C(=O)N(C)[C@@H](CCCC)C(=O)N[C@@H](C)C(=O)N[C@H](C(=O)NCC(N)=O)CSCC(=O)N[C@@H](Cc2ccc(O)cc2)C(=O)N(C)[C@@H](C)C(=O)N[C@@H](CC(N)=O)C(=O)N2CCC[C@H]2C(=O)N[C@@H](CN)C(=O)N[C@@H](CC(=O)O)C(=O)N2C[C@H](O)C[C@H]2C(=O)N[C@@H](Cc2c[nH]c3ccccc23)C(=O)N[C@@H](CO)C(=O)N[C@@H](Cc2c[nH]c3ccccc23)C(=O)N1C [Example 1170] ({CH2CO}-Y[NMeA]NP[Dap]D[Hyp]WSW[NMeNle][NMeNle]ACG-NH2; thioether N-14) | 0.385 to 6.74 nM | – | 4.78 to 72.9 nM |
| CCCC[C@H]1C(=O)N(C)CC(=O)N[C@@H](CC(=O)O)C(=O)N[C@@H](C(C)C)C(=O)N(C)[C@@H](Cc2ccccc2)C(=O)N[C@@H](Cc2ccc(O)cc2)C(=O)N(C)CC(=O)N[C@@H](Cc2c[nH]c3ccccc23)C(=O)N[C@@H](Cc2ccc(O)cc2)C(=O)N[C@@H](CC(C)C)C(=O)N[C@H](C(=O)NCC(N)=O)CSCC(=O)N[C@@H](Cc2ccccc2)C(=O)N(C)[C@@H](Cc2ccc(O)cc2)C(=O)N1C [Example 3059] (HELM PEPTIDE1{[O=C(C[*:3])[*:2]].F.[meY].[CCCC[C@@H](C(=O)[*:2])N(C)[*:1]].[Sar].D.V.[meF].Y.[Sar].W.Y.L.C.G.[am]}$PEPTIDE1,PEPTIDE1,1:R3-14:R3$$$V2.0) | 6.76 to 30.3 nM | – | 4.78 to 72.9 nM |
| CCCC[C@H]1C(=O)N(C)[C@@H](CCCC)C(=O)N[C@@H](CCCNC(=N)N)C(=O)N[C@H](C(=O)NCC(N)=O)CSCC(=O)N[C@@H](Cc2ccc(OC)cc2)C(=O)N(C)[C@@H](C)C(=O)N[C@@H](CC(N)=O)C(=O)N2CCC[C@H]2C(=O)N[C@@H](CN)C(=O)N[C@@H](CC(C)C)C(=O)N2C[C@H](O)C[C@H]2C(=O)N[C@@H](Cc2c[nH]c3ccccc23)C(=O)N[C@@H](CO)C(=O)N[C@@H](Cc2c[nH]c3ccccc23)C(=O)N1C [Example 7039] ({CH2CO}-Y(Me)[NMeA]NP[Dap]L[Hyp]WSW[NMeNle][NMeNle]RCG-NH2; thioether N-14) | 0.385 to 6.74 nM | 0.158 to 4.71 nM | – |
| CCCC[C@H]1C(=O)N2C[C@@H](O)C[C@@H]2C(=O)N[C@@H](CC(N)=O)C(=O)N[C@@H](C(C)C)C(=O)N(C)[C@@H](Cc2ccccc2)C(=O)N[C@@H](Cc2ccc(O)cc2)C(=O)N2CCCC[C@@H]2C(=O)N[C@@H](Cc2c[nH]c3ccccc23)C(=O)N[C@@H](Cc2ccc(O)cc2)C(=O)N[C@@H](CCCCN)C(=O)N[C@H](C(=O)NCC(N)=O)CSCC(=O)N[C@@H](Cc2cc(F)c(F)c(F)c2)C(=O)N(C)[C@@H](Cc2ccccc2)C(=O)N1C [Example 3591] ({CH2CO}-[Phe(3,4,5-F3)][NMeF][NMeNle][dHyp]NV[NMeF]Y[dPip]WYKCG-NH2; thioether N-13) | 0.385 to 6.74 nM | 0.158 to 4.71 nM | – |
| CCCC[C@H]1C(=O)N(C)CC(=O)N[C@@H](CC(=O)O)C(=O)N[C@@H](C(C)C)C(=O)N(C)[C@@H](Cc2ccccc2)C(=O)N[C@@H](Cc2ccc(O)cc2)C(=O)N(C)CC(=O)N[C@@H](Cc2c[nH]c3ccccc23)C(=O)N[C@@H](Cc2ccc(O)cc2)C(=O)N[C@@H](CC(C)C)C(=O)N[C@H](C(=O)NCC(=O)O)CSCC(=O)N[C@@H](Cc2ccccc2)C(=O)N(C)[C@@H](Cc2ccccc2)C(=O)N1C [Example 3517] (HELM PEPTIDE1{[O=C(C[*:3])[*:2]].F.[meF].[CCCC[C@@H](C(=O)[*:2])N(C)[*:1]].[Sar].D.V.[meF].Y.[Sar].W.Y.L.C.G}$PEPTIDE1,PEPTIDE1,1:R3-14:R3$$$V2.0) | > 30.5 nM | > 74.3 nM | – |
| CCCC[C@H]1C(=O)N(C)[C@@H](CCCC)C(=O)N[C@@H](CCN)C(=O)N[C@H](C(=O)NCC(N)=O)CSCC(=O)N[C@@H](Cc2ccc(O)cc2)C(=O)N(C)[C@@H](C)C(=O)N[C@@H](CC(N)=O)C(=O)N2CCC[C@H]2C(=O)N[C@@H](Cc2cnc[nH]2)C(=O)N[C@@H](CC(C)C)C(=O)N2C[C@H](O)C[C@H]2C(=O)N[C@@H](Cc2c[nH]c3ccccc23)C(=O)N[C@@H](CO)C(=O)N[C@@H](Cc2c[nH]c3ccccc23)C(=O)N1C [Example 1131] | 0.385 to 6.74 nM | – | 0.158 to 4.71 nM |
| CCCC[C@H]1C(=O)N(C)[C@@H](CCCC)C(=O)N[C@@H](CCCNC(=N)N)C(=O)NC(C(=O)NCC(N)=O)CCSCC(=O)N[C@@H](Cc2ccc(O)cc2)C(=O)N(C)[C@@H](C)C(=O)N[C@@H](CC(N)=O)C(=O)N2CCC[C@H]2C(=O)N[C@@H](Cc2cnc[nH]2)C(=O)N[C@@H](CC(C)C)C(=O)N2C[C@H](O)C[C@H]2C(=O)N[C@@H](Cc2c[nH]c3ccccc23)C(=O)N[C@@H](CO)C(=O)N[C@@H](Cc2c[nH]c3ccccc23)C(=O)N1C (stereo partly shown) [Example 9021] ({CH2CO}-Y[NMeA]NPHL[Hyp]WSW[NMeNle][NMeNle]R[ξhCys]G-NH2; thioether N-14) | 6.76 to 30.3 nM | > 74.3 nM | – |
| CCCC[C@H]1C(=O)N(C)[C@@H](CCCC)C(=O)N[C@@H](CCC(=O)O)C(=O)N[C@H](C(=O)NCC(N)=O)CSCC(=O)N[C@@H](Cc2ccc(O)cc2)C(=O)N(C)[C@@H](C)C(=O)N[C@@H](CCC(=O)O)C(=O)N2CCC[C@H]2C(=O)N[C@@H](Cc2c[nH]cn2)C(=O)N[C@@H](CCCN)C(=O)N2C[C@H](O)C[C@H]2C(=O)N[C@@H](Cc2c[nH]c3ccccc23)C(=O)N[C@@H](CCCCN)C(=O)N[C@@H](Cc2c[nH]c3ccccc23)C(=O)N1C [Example 5138] ({CH2CO}-Y[NMeA]EPH[Orn][Hyp]WKW[NMeNle][NMeNle]ECG-NH2; thioether N-14) | 0.385 to 6.74 nM | 0.158 to 4.71 nM | – |
